Marks after values point to notes of the source that are not given here.
System: break light A
Assay: Molecular break light assay: cleavage of break light A by enediynes and Fe^+2-dependent agents
Format: biochemical
Settings: for agent concentration at maximum turnover: [A] = 32 nM; for Vmax: 37° C.; for agent concentration at maximum turnover (Vapp/[cleavage agent]): [molecular break light A] = 3.2 nM; for effect of ascorbate on DNA-cleavage: addition of ascorbate
Experimental: Samples were analyzed with a FluoroMax-2 spectrofluorometer equipped with DataMax for Windows (Instruments S. A., Inc.; Edison, N.J.) and the temperature controlled (30° C., unless otherwise noted) by a Haake Circulator DC10. All samples were filtered prior to analysis and analyzed via a timebase scan (λex=485 nm, λEm=517 nm) in a Suprasil quartz cuvette (10 mm path) fitted with a magnetic stirring bar in a total volume of 2 mL. […] Total cleavage of the labeled oligonucleotide, confirmed by polyacrylamide gel electrophoresis (PAGE), was defined as the maximum fluorescence emission possible under saturated cleaving conditions. Emission units were converted to the amount of labeled oligonucleotide used within a procedure, thereby equating labeled oligonucleotide degradation as a function of the emission of fluorescence.
Enediyne antibiotics calicheamicin and esperamicin at varying concentrations (0.31, 0.78, 1.6, 3.2, 15.9, and 31.7 nM) were incubated in 40 mM Tris-HCl (pH 7.5) with 3.2 nM of the calicheamicin-specific labeled molecular break light oligonucleotide (A). DNA cleavage was initiated with the addition of 1 μL 100 mM dithiothreitol (“DTT”) to produce a final concentration of 50 μM DTT, and the reaction was monitored over 10 minutes via spectrofluorometry.
Pseudo-first order kinetic parameters were utilized to determine the initial velocities at each given enediyne concentration. Specifically, graphical representation of the data was based upon equation 2 where [A]t is the concentration of cleaved oligonucleotide at a given time (t) and [A]0 is the initial concentration of oligonucleotide in the assay. Least squares analysis gave the slope (k), or rate, which was converted to V by the relationship in equation 3. The maximum velocity achieved (Vmax) was then selected from the range of concentrations examined.
ln[A]t=−kt+ln[A]0 [Equation 2]
Bleomycin, an Fe^+2-dependent nucleic acid cleavage agent, is a natural metabolite from Streptomyces verticillus. Blenoxane (a mixture containing approximately 70% bleomycin A2 and 30% bleomycin B2) was dissolved in water & optically standardized (ε291=1.7×10^4M^−1 cm^−1). Bleomycin mediated cleavage was adapted from procedures outlined by Giloni et al. J. Biol. Chem. 256: 8608-8615 (1981). Several different concentrations of bleomycin (200 nM, 100 nM, 50 nM, 25 nM, 12.5 nM, 5 nM, and 2.5 nM) were incubated in 50 mM sodium phosphate, 2.5 mM ascorbate, at pH 7.5 and 37° C. with 3.2 nM of the molecular break light A.
The reaction was initiated by the addition of 65 mM Fe(II) and monitored over 5 minutes. This protocol was repeated with the addition of 5 mM sodium ascorbate to the above conditions. Pseudo-first order kinetic parameters were utilized to determine the initial velocities at each given bleomycin concentration as previously described.
In a first assay, 3.2 nM break light A was incubated in 40 mM Tris HCl and 2.5 mM ascorbate at 37° C. and pH 7.5. Cleavage was initiated by addition of MPE/Fe(II) in a 1.2:1 molar ratio to various concentrations. Final Fe(II) concentrations were 8 μM, 4 μM, 2 μM, 1 μM, 500 nM, 250 nM, and 125 nM.
In a second assay, 32 nM molecular break light A was incubated in 40 mM Tris and 2.5 mM sodium ascorbate at pH 7.5 and 37° C. Cleavage was initiated by addition of MPE/Fe(II) in a 1.2:1 molar ratio to various concentrations. Final Fe(II) concentrations were 50 nM, 125 nM, 250 nM, 500 nM, 1 μM, and 2 μM.
In a third assay, 32 nM break light A (calicheamicin-specific molecular break light oligonucleotide) was incubated in 40 mM Tris and 2.5 mM sodium ascorbate at pH 7.5 and 37° C.

[1] = [DNA]total = 3.2 nM, MPE as common agent

| Compound | agent concentration at maximum turnover [nM] | Turnover (Vmax/[Agent]) ([DNA]total = 3.2 nM) [s⁻¹] | Vmax ([DNA]total = 3.2 nM) | Comparison to EDTA (fold enhancement over EDTA turnover) [1] | Comparison to EDTA (fold enhancement over EDTA turnover) ([DNA]total = 32 nM) | Turnover (Vmax/[Agent]) ([DNA]total = 32 nM) [s⁻¹] | Vmax ([DNA]total = 32 nM) | agent concentration at maximum turnover (Vapp/[cleavage agent]) [nM] | effect of ascorbate on DNA-cleavage | enhancement of cleavage efficiency in comparison to Fe^+2-EDTA (from Table 1) | detection of agent by the assay (sensitivity range) (3.2 nM break light A, conditions described) | additional increase of cleavage efficiency over MPE (from Table 1) [fold] | maximum fluorescence upon cleavage, compared with DNaseI (3.2 nM break light A, excess DTT) | enhancement of cleavage efficiency over bleomycin (from Table 1) [fold] |
| --- | --- | --- | --- | --- | --- | --- | --- | --- | --- | --- | --- | --- | --- | --- |
| methidiumpropyl-Fe^+2-EDTA [Methidiumpropyl-EDTA] | ~50 | 2.4e-05 | 0.003 ± 0.001^d nM sec^−1 | 1.6 × 10^3 fold | 1.6 × 10^3 fold | 0.002 | 0.118 ± 0.004^e nM sec^−1 | 125 | critical for efficient DNA-cleavage | ~10^3 fold |  |  |  |  |
| bleomycin |  | 0.001 | 0.009 ± 0.001^d nM sec^−1 | 6.8 × 10^4 fold |  |  |  | 2.5 | did not affect |  | nM range | 10 |  |  |
| esperamicin A1 |  | 0.009 | 0.007 ± 0.001^d nM sec^−1 | 6.1 × 10^5 fold |  |  |  |  |  |  |  |  | identical to that observed with DNaseI | ~10 |
| O=C([O-])CN(CCN(CC(=O)[O-])CC(=O)[O-])CC(=O)[O-].[Fe+2].[H+].[H+] [EDTA, Fe^+2-EDTA] | ~1300 |  |  |  | 1.0 fold | 1.5e-06 | 0.002 ± 0.001^e nM sec^−1 |  | critical for efficient DNA-cleavage |  |  |  |  |  |
